# According to patent publication US12617771B2, “Diphenylpyrazole compound, and preparation method therefor and application thereof” (NORTHWEST A&F UNIVERSITY, priority 2021, dated 2026):
# Key:
# Format in all cases: biochemical
# [1] = target: Plutella xylostella GSTs; test: Inhibition of total GSTs enzyme of Plutella xylostella (CDNB method)
# Method: (§1) Experiment: About 50 mg of larvae/nymphs of nine major pests such as Plutella xylostella, Mythimna separata, Pyrausta nubilalis, Chilo suppressalis, Nilaparvata lugens, Spodoptera frugiperda, Helicoverpa armigera, Carposina sasakii, Spodoptera litura were taken, grounded in a mortar pre-cooled at −80° C., and then 1 mL of 100 mM sodium phosphate buffer (1 mM EDTA, pH 7.2) was added and fully homogenized. The homogenate was transferred to a 1.5 mL centrifuge tube at 4° C., and centrifuged at 14,000 g for 30 minutes, and the supernatant was transferred to a new centrifuge tube as the GSTs total enzyme. The protein concentrations of the above total enzymes were determined using the BCA method.
# (§2) 100 μL of PBS buffer (100 mM, pH 7.2) containing 1 mM GSH was taken and placed in a 96-well plate, 5 μg of insect total GSTs enzymes and an appropriate concentration of compounds PXG1-PXG29 (29 compounds) of the present invention were added to each well, after uniformly mixing, and allowed to stand at 30° C. for 10 min. Then 100 μL of PBS buffer (100 mM, pH 7.2) containing 1 mM CDNB was added to each well. Immediately after mixing, the mixture was placed in a microplate reader to measure the absorbance at a wavelength of 340 nm (A 340) once every 1 min, the measurement was carried out continuously for 5 min, the light absorption values of each measuring point were recorded and the inhibition rate in vitro of the compounds with different concentrations against insects total GSTs enzymes were calculated. Each group of assays was repeated three times, and total GSTs enzymes inactivated at 100° C. for 5 min were used as negative controls, and GTX was used as positive controls. GraphPad Prism 5 software was used for analysis and calculation of IC50. Relative inhibition was calculated using the following formula:
# (§3) [formula] • wherein, A340 is the change of A340 within 5 minutes for the control group, and A340t is the change of A340 within 5 minutes for the experimental group.
# [2] = target: Carposina sasakii GSTs; test: Inhibition of total GSTs enzyme of Carposina sasakii (CDNB method)
# Method: as §1, §2, §3
# [3] = target: Spodoptera litura GSTs; test: Inhibition of total GSTs enzyme of Spodoptera litura (CDNB method)
# Method: as §1, §2, §3
# [4] = target: Mythimna separata GSTs; test: Inhibition of total GSTs enzyme of Mythimna separata (CDNB method)
# Method: as §1, §2, §3
# [5] = target: Pyrausta nubilalis GSTs; test: Inhibition of total GSTs enzyme of Pyrausta nubilalis (CDNB method)
# Method: as §1, §2, §3
# [6] = target: Chilo suppressalis GSTs; test: Inhibition of total GSTs enzyme of Chilo suppressalis (CDNB method)
# Method: as §1, §2, §3
# [7] = target: Nilaparvata lugens GSTs; test: Inhibition of total GSTs enzyme of Nilaparvata lugens (CDNB method)
# Method: as §1, §2, §3
# [8] = target: Spodoptera frugiperda GSTs; test: Inhibition of total GSTs enzyme of Spodoptera frugiperda (CDNB method)
# Method: as §1, §2, §3
# [9] = target: Helicoverpa armigera GSTs; test: Inhibition of total GSTs enzyme of Helicoverpa armigera (CDNB method)
# Method: as §1, §2, §3
# [10] = target: PxGSTδ1 (Plutella xylostella, UniProt D7URW9); test: Inhibition of PxGSTδ1 recombinant protein; details: read-out: 100 μM Inhibition rate %
# Sequence of PxGSTδ1 (D7URW9 entry or part of it): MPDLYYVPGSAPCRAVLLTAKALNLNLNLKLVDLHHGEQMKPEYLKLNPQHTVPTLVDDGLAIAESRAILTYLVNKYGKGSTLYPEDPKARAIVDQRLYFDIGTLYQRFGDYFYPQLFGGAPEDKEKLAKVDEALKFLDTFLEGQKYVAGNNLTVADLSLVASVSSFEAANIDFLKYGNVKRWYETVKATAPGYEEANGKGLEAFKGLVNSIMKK
# Method: (§4) Experiment: 100 μL of PBS buffer (100 mM, pH 7.2) was taken and added to a 96-well plate, 1 μg of PxGSTs recombinant protein and an appropriate concentration of the compounds PXG1-PXG29 of the present invention were added to each well, after uniformly mixing, and allowed to stand at 30° C. for 10 min. Then 100 μL of PBS buffer (100 mM, pH 7.2) containing 1 mM CDNB and 1 mM GSH was successively added to each well. Immediately after mixing, the mixture was placed in a microplate reader to measure the absorbance at a wavelength of 340 nm (A340) once every 1 min, the measurement was continued for 5 min, the light absorption values of each measuring point were recorded and the inhibition rate in vitro of the compounds PXG1-PXG29 of the present invention with different concentrations against PxGSTs recombinant protein were calculated. Each group of assays was repeated three times, and PxGSTs recombinant protein inactivated at 100° C. for 5 min was used as negative control, and GTX was used as positive control. GraphPad Prism 5 software was used for analysis and calculation of IC50. Relative inhibition was calculated using the following formula:
# (§5) [formula] • wherein, A340c is the change of A340 […] the control group, an A340t is the change of A340 within 5 minutes for the experimental group.
# [11] = target: PxGSTσ1 (Plutella xylostella, UniProt Q6F436); test: Inhibition of PxGSTσ1 recombinant protein; details: read-out: 100 μM Inhibition rate %
# Sequence of PxGSTσ1 (Q6F436 entry or part of it): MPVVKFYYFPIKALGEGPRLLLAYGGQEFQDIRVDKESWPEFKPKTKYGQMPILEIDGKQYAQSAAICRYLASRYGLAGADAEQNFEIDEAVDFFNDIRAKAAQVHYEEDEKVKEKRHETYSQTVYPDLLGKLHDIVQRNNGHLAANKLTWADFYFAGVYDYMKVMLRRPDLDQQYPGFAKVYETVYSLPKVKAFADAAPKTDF
# Method: as §4, §5
# [12] = target: PxGSTσ2 (Plutella xylostella, UniProt Q6F443); test: Inhibition of PxGSTσ2 recombinant protein; details: read-out: 100 μM Inhibition rate %
# Sequence of PxGSTσ2 (Q6F443 entry or part of it): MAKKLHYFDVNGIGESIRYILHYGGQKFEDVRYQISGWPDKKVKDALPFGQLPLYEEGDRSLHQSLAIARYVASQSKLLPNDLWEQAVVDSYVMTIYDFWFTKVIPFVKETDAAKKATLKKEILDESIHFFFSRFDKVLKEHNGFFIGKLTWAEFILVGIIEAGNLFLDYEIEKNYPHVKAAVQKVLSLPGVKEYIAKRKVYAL
# Method: as §4, §5
# [13] = target: PxGSTε3 (Plutella xylostella, UniProt O77409); test: Inhibition of PxGSTε3 recombinant protein; details: read-out: 100 μM Inhibition rate %
# Sequence of PxGSTε3 (O77409 entry or part of it): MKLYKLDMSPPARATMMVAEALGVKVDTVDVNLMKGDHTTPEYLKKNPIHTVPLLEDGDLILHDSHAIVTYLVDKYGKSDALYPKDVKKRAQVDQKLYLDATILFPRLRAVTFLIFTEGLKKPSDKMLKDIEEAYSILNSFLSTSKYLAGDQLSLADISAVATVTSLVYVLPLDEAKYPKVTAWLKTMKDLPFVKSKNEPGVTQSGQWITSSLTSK
# Method: as §4, §5
SMILES,inhibition at 100 µM [10],inhibition at 100 µM [11],inhibition at 100 µM [12],inhibition at 100 µM [13],also measured
"CC1(CCc2ccccc2)NC(=O)N(NC(=O)c2cc(-c3ccccc3)nn2-c2ccccc2)C1=O (centres unmarked) [PXG15, N-[4-methyl-2,5-dioxo-4-(2-phenylethyl)imidazolin-1-yl]-1,3-diphenyl-1H-pyrazol-5-yl-carboxamide]",7.86%,42.5%,25.6%,4.62%,IC50 [1]: > 100 µM; 100 μM Inhibition rate % [1]: 16.83%; IC50 [2]: > 100 µM; 100 μM Inhibition rate % [2]: 17.01%; IC50 [3]: > 100 µM; 100 μM Inhibition rate % [3]: −5.22%; IC50 [4]: > 100 µM; 100 μM Inhibition rate % [4]: 4.29%; IC50 [5]: > 100 µM; 100 μM Inhibition rate % [5]: 4.69%; IC50 [6]: > 100 µM; 100 μM Inhibition rate % [6]: 18.72%; IC50 [7]: > 100 µM; 100 μM Inhibition rate % [7]: 2.97%; IC50 [8]: > 100 µM; 100 μM Inhibition rate % [8]: 0.41%; IC50 [9]: > 100 µM; 100 μM Inhibition rate % [9]: −1.48%
"COc1ccc(C2(C)NC(=O)N(NC(=O)c3cc(-c4ccccc4)nn3-c3ccccc3)C2=O)cc1 (centres unmarked) [PXG14, N-[4-(4-methoxyphenyl)-4-methyl-2,5-dioxaimidazolin-1-yl]-1,3-diphenyl-1H-pyrazol-5-yl-carboxamide]",14.9%,52.2%,36.4%,15.3%,–
"N#Cc1ccc(OCC(=O)NNC(=O)c2cc(-c3ccccc3)nn2-c2ccccc2)cc1 [PXG19, 2-(4-cyanophenoxy)-N′-(1,3-diphenyl-1H-pyrazol-5-yl-carbonyl)acetohydrazide]",58.7%,45.9%,32.5%,5.57%,IC50 [1]: > 100 µM; 100 μM Inhibition rate % [1]: 23.03%; IC50 [2]: > 100 µM; 100 μM Inhibition rate % [2]: 19.42%; IC50 [3]: > 100 µM; 100 μM Inhibition rate % [3]: 31.70%; IC50 [4]: > 100 µM; 100 μM Inhibition rate % [4]: 47.16%; IC50 [5]: > 100 µM; 100 μM Inhibition rate % [5]: 15.64%; IC50 [6]: > 100 µM; 100 μM Inhibition rate % [6]: 22.03%; IC50 [7]: > 100 µM; 100 μM Inhibition rate % [7]: 10.00%; IC50 [8]: > 100 µM; 100 μM Inhibition rate % [8]: 19.64%; IC50 [9]: > 100 µM; 100 μM Inhibition rate % [9]: 6.30%
"COc1cccc(C2(C)NC(=O)N(NC(=O)c3cc(-c4ccccc4)nn3-c3ccccc3)C2=O)c1 (centres unmarked) [PXG17, N-[4-(3-methoxyphenyl)-4-methyl-2,5-dioxaimidazolin-1-yl]-1,3-diphenyl-1H-pyrazol-5-yl-carboxamide]",2.22%,48.9%,43.9%,4.43%,–
"O=C(NNC(=O)c1cc(-c2ccc(Cl)cc2)nn1-c1ccccc1)c1ccccn1 [PXG20, N′-[3-(4-chlorophenyl)-1-phenyl-1H-pyrazol-5-yl-carbonyl]pyridin-2-yl-carbohydrazide]",23%,71.8%,29.6%,-15.7%,–
"O=C(CNc1ccccc1)NNC(=O)c1cc(-c2ccccc2)nn1-c1ccccc1 [PXG3, N′-(1,3-diphenyl-1H-pyrazol-5-yl-carbonyl)-2-(phenylamino) acetohydrazide]",72.4%,36.1%,27.6%,-1.11%,IC50 [1]: > 100 µM; 100 μM Inhibition rate % [1]: 25.47%; IC50 [2]: > 100 µM; 100 μM Inhibition rate % [2]: 23.07%; IC50 [3]: > 100 µM; 100 μM Inhibition rate % [3]: 17.09%; IC50 [4]: > 100 µM; 100 μM Inhibition rate % [4]: 42.96%; IC50 [5]: > 100 µM; 100 μM Inhibition rate % [5]: 17.35%; IC50 [6]: > 100 µM; 100 μM Inhibition rate % [6]: 26.63%; IC50 [7]: > 100 µM; 100 μM Inhibition rate % [7]: 35.05%; IC50 [8]: > 100 µM; 100 μM Inhibition rate % [8]: 35.46%; IC50 [9]: > 100 µM; 100 μM Inhibition rate % [9]: 20.74%
"O=C(NNC(=O)C1CCCC1)c1cc(-c2ccccc2)nn1-c1ccccc1 [PXG28, N′-(1,3-diphenyl-1H-pyrazol-5-yl-carbonyl) cyclopentyl carbohydrazide]",70.9%,19.5%,23.4%,0.96%,–
"CCC1(C)NC(=O)N(NC(=O)c2cc(-c3ccccc3)nn2-c2ccccc2)C1=O (centres unmarked) [PXG13, N-(4-ethyl-4-methyl-2,5-dioxaimidazolin-1-yl)-1,3-diphenyl-1H-pyrazol-5-yl-carboxamide]",14.1%,34.2%,22.8%,18.4%,–
"O=C(NNC(=O)c1cc(-c2ccc(Cl)cc2)nn1-c1ccccc1)c1cccnc1 [PXG7, N′-[3-(4-chlorophenyl)-1-phenyl-1H-pyrazol-5-yl-carbonyl]pyridin-3-yl-carbohydrazide]",55.7%,35.1%,20.1%,5.93%,–
"O=C(NNC(=O)c1cc(-c2ccccc2)nn1-c1ccccc1)c1ccc(=O)[nH]n1 [PXG27, N′-(1,3-diphenyl-1H-pyrazol-5-yl-carbonyl)-6-oxo-1,6-dihydropyridazin-3-yl-carbohydrazide]",41.7%,25.1%,42.4%,17.6%,–
"O=C(NNC(=O)c1cc(-c2ccccc2)nn1-c1ccccc1)c1cccnc1O [PXG25, N′-(1,3-diphenyl-1H-pyrazol-5-yl-carbonyl)-2-hydroxypyridin-3-yl-carbohydrazide]",23.8%,-1.47%,15.3%,2.07%,–
"CCOC(=O)NNC(=O)c1cc(-c2ccccc2)nn1-c1ccccc1 [PXG24, N′-(ethoxycarbonyl)-1,3-diphenyl-1H-pyrazol-5-yl-carbohydrazide]",23.1%,14.9%,19.7%,28.3%,–
"CCn1c(C)nc2cc(C(=O)NNC(=O)c3cc(-c4ccccc4)nn3-c3ccccc3)ccc21 [PXG21, N′-(1-ethyl-2-methyl-1H-1,3-benzodiazol-5-yl-carbonyl)-1,3-diphenyl-1H-pyrazol-5-yl-carbohydrazide]",7.82%,44.9%,11.7%,-2.67%,–
"O=C(NNC(=O)[C@@H]1COc2ccccc2O1)c1cc(-c2ccccc2)nn1-c1ccccc1 [PXG8, (2S)-N′-(1,3-diphenyl-1H-pyrazol-5-yl-carbonyl)-2,3-dihydro-1,4-benzodioxin-2-yl-carbohydrazide]",69.5%,37.8%,42.4%,-3.3%,–
